This is an account of results in patent US20200239398A1, “METHYLENE-CYCLOALKYLACETATE DERIVATIVES AND THEIR USE IN TREATMENT OF NEUROTROPIC CONDITIONS” (Yissum Research Development Company of The Hebrew …, priority 2018, published 2020).

The subject of series [1] is PC12 cells. Put plainly: Cytotoxicity (cell morphology, LDH release). The format is cell-based. The settings on record: 10 μM.
Series [2] has as its system PC12 cells. Description: PC12 cell neurotropic assay (neurite outgrowth). The series is classed as cell-based, rat. Conditions: 10 μM; for Neurotropic effect (mean ± SE) Seven Days Df / Neurotropic effect (mean ± SE) Two Days Df: PC12 cells, Df = fractal dimension of neurite outgrowth; for Neurotropic effect (mean ± SE) Seven Days Df: seven days of treatment; for Neurotropic effect (mean ± SE) Two Days Df: two days of treatment; for Neurotropic effect Seven Days NGF (%) / Neurotropic effect Two Days NGF (%): relative to NGF 50 ng/ml; for inducing fast neurite outgrowth (in words): after two days of treatment. As for the experimental part: PC12 cells were grown in T-200 flasks in high glucose (4.5 gr/L) DMEM medium supplemented with 7% FCS, 7% horse serum and 1% penicillin and streptomycin. Cells were incubated at 37° C. in a humidified incubator containing 6% CO2. All experiments were carried out in a clean room, according to ISO7 requirements (10,000 particles/m^3).
Tissue culture Falcon plates were coated with 200 μg/ml collagen type 1 and placed under UV light for 30 minutes for sterilization. Thereafter, one ml of PC12 cell suspension (5000 cells/well) was applied in 12 or 24 well plate, respectively. The cultures were grown in the incubator two days before exposure to investigated compound.
This experimental procedure contained two controls. The first consisted of untreated cells (negative control), representing the random effect: “noise signal”—the ability of cells to spontaneously grow neurite outgrowth which in seven days are of a length less than two-fold cell diameter. Also, negative controls consisted of cultures treated with 1% DMSO, solvent used to solubilize all compounds. The positive control consisted of cells treated with 50 ng/ml NGF, indicating maximal neurite outgrowth that can be achieved in this model. The experimental group consisted of PC12 cells treated with synthetic compounds. In each experiment, after two and seven days, six cultures were evaluated for neurotropic effect. These consecutive observations allow measurement of the progress of neurite outgrowth elongation and the percentage of cells with neurites.^31
In order to assess neurotropic effect, the neurite outgrowth length in each culture was quantified. For this purpose, each culture was placed under an inverted microscope and photographed by the attached camera. Each well was photographed at three to five representative areas. After acquiring the photos, they were analyzed by ImageJ, NIH software. The neurite outgrowth was estimated by fractal dimension (Df), a statistical parameter that describes the fractional space (area and length) filled by neurite outgrowth. Df ranged from 0 to 1.20. This method estimates the amount of picsel covered by neurites/cells compared to empty space per square field, and therefore plotting log (number of square boxes) vs. log (size in pixels) relationship generates a linear curve with Df representing the slope of the curve. Every photograph that was taken, was opened in a Photoshop software and a new layer was generated on it. Using a 5-pixel wide digital pencil tool, all the outgrowths were marked and the layer with the markers (outgrowth network) was saved in a 0-255 gray scale as described in FIG. 2. Then, the saved layer was opened by ImageJ NIH software. The software “skeletonized” the layer, measured the length and complexity of every outgrowth in a fractal box count and calculated the fractional dimension parameter (Df).^32
Each experiment was performed in duplicates and repeated three to four times (n=6-8). By using SPSS software, one way ANOVA was performed for the fractional dimension of each compound, in order to evaluate the neurotropic effect. In case of significance, Bonferroni post-hoc analysis was performed. The results were considered significant when p<0.05.

Series [3] has as its target Gamma-aminobutyric acid Receptor A (GABAA). The series is classed as cell-based. Conditions: Blocker mode; reference compound; read-out: RC50 (the source's name).
Series [4] has as its target T1, Nicotinic acetylcholine Receptor-alpha-4 beta-2 (nAChR (a4/b2)) (Homo sapiens, UniProt P17787+P43681).
T1 construct: DiscoverX (SAFETYscan contract panel)
Description: cell-based. The format is cell-based. Conditions: Blocker mode; reference compound; read-out: RC50 (the source's name).

Series [5] has as its system PC12 cells. Description: Additive neurotropic effect between HU-MCA-13 and NGF, PC12 neurite outgrowth. The format is cell-based, rat. As for the experimental part:
PC12 cells were cultured in T-200 flasks in high glucose (4.5 gr/L) DMEM medium supplemented with 7% FCS, 7% horse serum and 1% penicillin and streptomycin. Cells will be maintained at 37° C. in a humidified incubator containing 6% CO2. All experiments were carried out in a GLP clean room, according to ISO 7 requirements (10,000 particles/m^3). For neurotropic experiments, tissue culture Falcon plates were coated with 200 μg/ml collagen type 1 and placed under UV light for 30 minutes for sterilization. Thereafter, one ml of PC12 cell suspension (5000 cells/well) was applied in 12 or 24 well plate, respectively. The cultures were maintained in the incubator two days before exposure to investigated compound. Each neurotropic experiment contained two controls. The first consisted of untreated cells (negative control), representing the random effect: “noise signal”—the ability of cells to spontaneously grow neurite outgrowth which in seven days are of a length less than two-fold cell diameter. Also, negative controls consisted of cultures treated with 1% DMSO, solvent used to solubilize HU-MCA-13. The positive controls represented neuronal cultures treated with 50 ng/ml NGF, indicating maximal neurite outgrowth that can be achieved in this model. The experimental group consisted of PC12 cells treated with 10 μM HU-MCA-13. In each experiment, after two and seven days, six cultures will be evaluated for neurotropic effect. These consecutive observations allow measurement of the progress of neurite outgrowth elongation and the percentage of cells with neurites (Katzir et al. A quantitative bioassay for nerve growth factor, using PC12 clones expressing different levels of trkA receptors. J Mol Neurosci. 2002; 18(3):251-64). In order to assess neurotropic effect, the neurite outgrowth length in each culture was quantified. For this purpose, each culture was placed under an inverted microscope and photographed by the attached camera. Each well was photographed at three to five representative areas. After acquiring the photos, they were analyzed by ImageJ, NIH software. The neurite outgrowth was estimated by fractal dimension (Df), a statistical parameter that describes the fractional space (area and length) filled by neurite outgrowth. Df ranged from 0 to 1.20. This method estimated the amount of picsels covered by neurites/cells compared to empty space per square field, and therefore plotting log(number of square boxes) vs. log(size in pixels) relationship generated a linear curve with Df representing the slope of the curve. Every photograph that was taken, was opened in a Photoshop software and a new layer was generated on it. Using a 5-pixel wide digital pencil tool, all the outgrowths were marked and the layer with the markers (outgrowth network) were saved in a 0-255 gray scale. Thereafter, the saved layer was opened by ImageJ NIH software.
Using an established PC12 neurotropic in vitro assay, the regenerative enhancing effect of HU-MCA-13 when applied concomitantly, together with NGF, a known neurotrophin was investigated. […] NGF alone, as positive control, at the conventional dose of 50 ng/ml enhanced neurite outgrowth to a Df value of 0.54 at 2 days and 0.4 at 7 days of treatment (FIG. 5). To verify a possible additive effect, the cultures with a mixture of low dose NGF (1 ng/ml generating 10% neurite outgrowth=Df of 0.05) and 1 μM HU-MCA-13 generating about 10-15% neurite outgrowth=Df of 0.04) were tested and found after 2 days a Df of 0.85 and after 7 days a Df of 0.38. NGF is released by hematopoietic cells during polyneuropathy inflammatory process, this finding further strength the possibility of a potential enhancement regenerative effect of this drug upon in vivo therapy.

Series [6] relates to dorsal root ganglion (DRG) sensory neurons. Description: Neurite outgrowth in dorsal root ganglion (DRG) explants. The series is classed as cell-based, mice. As for the experimental part: To perform these experiments, about 10 dorsal root ganglia (DRGs) were excised under sterile conditions and transferred to 0.25% Type IV collagenase (Sigma-Aldrich-Merck) in Dulbecco's Modified Eagle Medium (DMEM) at 37° C. for 45 min, followed by a 20-min incubation with 0.025% trypsin in DMEM, to digest the associated connective tissue surrounding the neurons. After plating the ganglia onto collagen (50 μg/ml)/laminin mixture (5 μg/ml)-coated tissue culture wells for 24 h, DRG neurons were cultured for additional 1-7 days in fresh Neurobasal A/B27 containing either 50 ng/ml NGF (positive control), blank medium (DMSO 1%) control and HU-MCA-13. The cultures were photographed; thereafter the ganglia were immune-stained for neuronal tubulin and again photographed using a fluorescent microscope. Image analysis was performed by a researcher blinded to the experimental conditions. Neurite outgrowth distance measured in micrometers, was quantified as for PC12 cultures.

Where [7] appears, read: NGF 50 ng/ml, DRG explants, 5 days.

T1 sequence (P43681 29-627 limits assumed): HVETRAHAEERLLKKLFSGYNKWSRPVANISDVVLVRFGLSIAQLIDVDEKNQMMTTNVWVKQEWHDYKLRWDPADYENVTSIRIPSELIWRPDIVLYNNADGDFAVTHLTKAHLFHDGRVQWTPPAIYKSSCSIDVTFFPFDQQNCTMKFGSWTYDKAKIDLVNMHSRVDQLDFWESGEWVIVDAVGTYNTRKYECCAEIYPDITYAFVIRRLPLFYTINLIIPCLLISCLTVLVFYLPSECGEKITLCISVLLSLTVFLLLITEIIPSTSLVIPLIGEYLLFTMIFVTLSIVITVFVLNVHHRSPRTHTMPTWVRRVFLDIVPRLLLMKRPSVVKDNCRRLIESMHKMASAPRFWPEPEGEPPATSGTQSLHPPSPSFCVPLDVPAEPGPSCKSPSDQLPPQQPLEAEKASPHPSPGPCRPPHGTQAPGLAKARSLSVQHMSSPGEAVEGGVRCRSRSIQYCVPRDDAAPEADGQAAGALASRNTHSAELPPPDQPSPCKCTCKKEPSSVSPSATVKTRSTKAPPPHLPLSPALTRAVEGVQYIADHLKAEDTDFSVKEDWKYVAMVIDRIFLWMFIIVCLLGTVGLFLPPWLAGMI
T1 sequence (P17787 26-502): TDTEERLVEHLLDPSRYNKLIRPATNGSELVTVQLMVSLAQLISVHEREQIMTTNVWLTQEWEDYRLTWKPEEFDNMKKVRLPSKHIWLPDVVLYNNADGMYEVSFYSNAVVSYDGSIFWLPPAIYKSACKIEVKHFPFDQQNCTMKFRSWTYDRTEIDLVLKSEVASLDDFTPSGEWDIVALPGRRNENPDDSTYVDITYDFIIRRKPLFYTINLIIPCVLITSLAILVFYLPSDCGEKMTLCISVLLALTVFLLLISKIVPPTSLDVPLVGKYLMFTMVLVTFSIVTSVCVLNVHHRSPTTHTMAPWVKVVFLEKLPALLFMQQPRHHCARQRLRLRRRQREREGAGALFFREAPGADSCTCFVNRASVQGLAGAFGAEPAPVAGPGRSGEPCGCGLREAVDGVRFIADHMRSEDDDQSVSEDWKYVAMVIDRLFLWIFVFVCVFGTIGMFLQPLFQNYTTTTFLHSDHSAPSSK

Consider `C=C(C)CC1CCCC(CC(=O)OC)C1=O` (stereo not shown) [Compound 18, Methyl 2-(3-(2-methylallyl)-2-oxocyclohexyl)acetate], for which the “cytotoxicity (in words)” value in series [1] is recorded as “partial cytotoxic activity”.
Regarding `C=C1C(CC=C(C)C)CCC[C@H]1CC(=O)O` (stereo partly shown) [Compound 6], in series [2], the “Neurotropic effect (mean ± SE) Seven Days Df” value is 0.20 ± 0.17, the “Neurotropic effect (mean ± SE) Two Days Df” value came to 0.14 ± 0.15, the “Neurotropic effect Seven Days NGF (%)” value is reported as 43.5% and the “Neurotropic effect Two Days NGF (%)” value was 30.4%. Besides, the “inducing fast neurite outgrowth (in words)” value in series [2] is reported as “most active”. Besides, the “neurotropic activity (in words)” value in series [2] (after seven days of treatment) is “significant neurotropic activity”.
As to `COC(=O)CC1CCCC(CC=C(C)C)C1=O` (stereo not shown) [Compound 21, Methyl 2-(3-(3-methylbut-2-en-1-yl)-2-oxocyclohexyl)acetate], in series [2], the “Neurotropic effect (mean ± SE) Seven Days Df” value came out at 0.01 ± 0.01 and the “Neurotropic effect Seven Days NGF (%)” value is 2.2%.
`C=CCC1CC(c2ccccc2)C[C@@H](CC(=O)O)C1=C` (stereo partly shown) [Compound 10]: the “neurotropic activity (in words)” value in series [2] (PC12 cell neurotropic assay) is “no activity was detected”.
As for Picrotoxin [reference compound], the IC50 in series [3] was determined as 5.92 µM.
Take `C=CCC1CC(c2ccccc2)CC(CC(=O)OC)C1=C` (stereo not shown) [Compound 11, Methyl 2-(3-allyl-2-methylene-5-phenylcyclohexyl)acetate]: in series [2], the “Neurotropic effect (mean ± SE) Seven Days Df” value is reported as 0.01 ± 0.01 and the “Neurotropic effect Seven Days NGF (%)” value was determined as 2.2%. In addition, the “neurotropic activity (in words)” value in series [2] (PC12 cell neurotropic assay) is “no activity was detected”.
For `C=CCC1CC(=C)C[C@@H](CC(=O)O)C1=C` (stereo partly shown) [Compound 9], in that order: 0.01 ± 0.01, 2.2% and “no activity was detected”.
Regarding `C=C1C(CC=C(C)C)CCCC1CC(=O)OC` (stereo not shown) [Compound 7, Methyl 2-(3-(3-methylbut-2-en-1-yl)-2-methylenecyclohexyl)acetate], in series [2], the “Neurotropic effect (mean ± SE) Seven Days Df” value is 0.20 ± 0.17, the “Neurotropic effect (mean ± SE) Two Days Df” value is reported as 0.12 ± 0.14, the “Neurotropic effect Seven Days NGF (%)” value came out at 43.5% and the “Neurotropic effect Two Days NGF (%)” value is 26.1%. Besides, in series [2], the “inducing fast neurite outgrowth (in words)” value is given as “most active”. For the same molecule, the “neurotropic activity (in words)” value in series [2] (after seven days of treatment) is given as “significant neurotropic activity”.
Turning to “Dihydro-AY-erythroidine [reference compound]”, in series [4], the IC50 worked out at 707 nM.
Turning to `C=C(C)CC1CCCC(CC(=O)OC)C1=C` (stereo not shown) [Compound 5, Methyl 2-(3-(2-methylallyl)-2-methylenecyclohexyl)acetate], in series [2], the “loss of activity from day two to seven” value came to 50%, the “Neurotropic effect (mean ± SE) Seven Days Df” value is on record as 0.20 ± 0.17, the “Neurotropic effect (mean ± SE) Two Days Df” value turned out to be 0.42 ± 0.01 and the “Neurotropic effect Seven Days NGF (%)” value came out at 43.5%. In series [2], the “Neurotropic effect Two Days NGF (%)” value came out at 91.3% and the “inducing fast neurite outgrowth (in words)” value is reported as “most active”. Besides, the “neurotropic activity (in words)” value in series [2] (after seven days of treatment) is “significant neurotropic activity”.
Regarding `C=CCC1CC(C(C)(C)C)C[C@@H](CC(=O)O)C1=C` (stereo partly shown) [Compound 12], in series [2], the “Neurotropic effect (mean ± SE) Seven Days Df” value turned out to be 0.17 ± 0.16 and the “Neurotropic effect Seven Days NGF (%)” value was 37.0%. Also, the “neurotropic activity (in words)” value in series [2] (after seven days of treatment) was “significant neurotropic activity”.
Turning to `C=C1C(C/C=C/c2ccccc2)CCC[C@H]1CC(=O)O` (stereo partly shown) [Compound 8], in series [1], the “cytotoxicity (in words)” value was “partial cytotoxic activity”.
Same read-out and setting: with `C=CCC1CN(C(=O)OCC)CC(CC(=O)OC)C1=C` (stereo not shown) [Compound 15, Ethyl-3-allyl-5-(2-methoxy-2-oxoethyl)-4-methylenepiperidine-1-carboxylate] the entry was “partial cytotoxic activity”.

B1: NGF: Tissue culture grade mouse β-NGF from Alomone Labs; positive control (protein, UniProt P01139 122-241, looked up)
Beta-nerve growth factor: SSTHPVFHMGEFSVCDSVSVWVGDKTTATDIKGKEVTVLAEVNINNSVFRQYFFETKCRASNPVESGCRGIDSKHWNSYCTTTHTFVKALTTDEKQAAWRFIRIDTACVCVLSRKATRRG
modifications: Beta-nerve growth factor
notes: Tissue culture grade mouse β-NGF from Alomone Labs; positive control
As for B1, the “neurite outgrowth Df” value in series [5] (NGF alone 50 ng/ml, 2 days) is reported as 0.54; in series [5] (NGF alone 50 ng/ml, 7 days), 0.4; in series [5] (low dose NGF 1 ng/ml) it was 0.05. The molecule further registered a neurite outgrowth in series [5] (low dose NGF 1 ng/ml) of 10%. For the same molecule, the “increase in neurite outgrowth” value in series [6] (NGF 50 ng/ml vs blank control medium) is recorded as 3-4 fold. Further, in series [6] (setting [7]), the neurite outgrowth length is on record as 700 micrometer. In series [6] (setting [7]), the “ratio between the area covered by neurites and that covered by the DRG ganglia” value is reported as 9.
